Three compounds from ChEMBL document CHEMBL3525943, “Regiospecific and stereospecific triangulation of the structures of metabolites formed by sequential metabolism at multiple prochiral centers” (Drug Metab Dispos, 2012) can be followed below.

Data set [1] is described as follows: Drug recovery in urine of Sprague-Dawley rat at 5 mg/kg, po measured after 72 hrs by liquid scintillation counting analysis. Format: ADME, organism-based. Further details: dose 5 mg/kg, route oral; call rule not given here. Conditions: in vivo.
The nature of data set [2]: Drug recovery in feces of Sprague-Dawley rat at 5 mg/kg, po measured after 72 hrs by liquid scintillation counting analysis. More on the design: dose 5 mg/kg, route oral. The settings on record: in vivo. The class given is ADME, organism-based.
The test system of data set [3] is Plasma. Kind of data set: Drug level in Sprague-Dawley rat plasma at 5 mg/kg, po measured after 72 hrs by liquid scintillation counting analysis. Conditions: in vivo. More on the design: dose 5 mg/kg, route oral. Format: ADME, organism-based.
The nature of data set [4]: Drug recovery in urine of bile duct cannulated Sprague-Dawley rat at 5 mg/kg, po measured over 48 hrs by liquid scintillation counting analysis. The class given is ADME, organism-based. More on the design: dose 5 mg/kg, route oral. The settings on record: in vivo.
Data set [5] is described as follows: Drug recovery in bile of bile duct cannulated Sprague-Dawley rat at 5 mg/kg, po measured over 48 hrs by liquid scintillation counting analysis. Format: ADME, organism-based. Further details: dose 5 mg/kg, route oral. Conditions: in vivo.
Data set [6] in a line: Drug metabolism in Sprague-Dawley rat urine assessed as formation of (2S,3S,4S,5R)-3,4,5-trihydroxy-6-((1R,2S,4R,5S)-5-((S)-5-isopropyl-5-methyl-4-oxo-4,5-dihydrothiazol-2-ylamino)bicyclo[2.2.1]heptan-2-yloxy)tetrahydro-2H-pyran-2-carboxylic acid at 5 mg/kg, po measured over 48 hrs by LC-MS/HPLC radiometric analysis. More on the design: dose 5 mg/kg, route oral. The settings on record: in vivo. The class given is ADME, organism-based.

The nature of data set [7]: Drug metabolism in Sprague-Dawley rat urine assessed as formation of (S)-5-isopropyl-5-methyl-2-((1R,2S,4R)-5-oxobicyclo[2.2.1]heptan-2-ylamino)thiazol-4(5H)-one at 5 mg/kg, po measured over 24 hrs by LC-MS/HPLC radiometric analysis. The class given is ADME, organism-based. More on the design: dose 5 mg/kg, route oral. The settings on record: in vivo.
A short description of data set [8]: Drug metabolism in Sprague-Dawley rat urine assessed as formation of (S)-2-((1R,2S,4R,5S)-5-hydroxybicyclo[2.2.1]heptan-2-ylamino)-5-((R)-1-hydroxypropan-2-yl)-5-methylthiazol-4(5H)-one at 5 mg/kg, po measured over 24 hrs by LC-MS/HPLC radiometric analysis. Format: ADME, organism-based. More on the design: dose 5 mg/kg, route oral. Conditions: in vivo.
Data set [9] is described as follows: Drug metabolism in Sprague-Dawley rat urine assessed as formation of (S)-2-((1R,2S,4R,5R)-5-hydroxybicyclo[2.2.1]heptan-2-ylamino)-5-((S)-1-hydroxypropan-2-yl)-5-methylthiazol-4(5H)-one at 5 mg/kg, po measured over 24 hrs by LC-MS/HPLC radiometric analysis. Format: ADME, organism-based. More on the design: dose 5 mg/kg, route oral. The settings on record: in vivo.

Data set [10] is described as follows: Drug level in Sprague-Dawley rat urine at 2 mg/kg, po measured over 24 hrs by LC-MS/HPLC radiometric analysis. Format: ADME, organism-based. More on the design: dose 2 mg/kg, route oral. Conditions: in vivo.
Data set [11] in a line: Drug metabolism in Sprague-Dawley rat urine assessed as formation of (S)-2-((1R,2S,4R,5S)-5-hydroxybicyclo[2.2.1]heptan-2-ylamino)-5-(2-hydroxypropan-2-yl)-5-methylthiazol-4(5H)-one at 5 mg/kg, po measured over 24 hrs by LC-MS/HPLC radiometric analysis. The class given is ADME, organism-based. Further details: dose 5 mg/kg, route oral. The settings on record: in vivo.
Data set [12] concerns Rattus norvegicus. Kind of data set: Total drug recovery in female Sprague-Dawley rat treated with [14C]-AMG 221 at 2 mg/kg, po measured over 48 hrs by liquid scintillation counting analysis. More on the design: dose 2 mg/kg, route oral. Format: ADME, organism-based. Conditions: in vivo.
The subject of data set [13] is Liver microsome. Briefly: Drug level in rat liver microsomes treated with (S)-2-((1S,2S,4R,6R)-6-hydroxybicyclo[2.2.1]heptan-2-ylamino)-5-isopropyl-5-methylthiazol-4(5H)-one at 20 uM preincubated for 5 mins followed by NADPH addition measured after 60 mins by LC-MS/MS analysis. The settings on record: 1 h. The class given is ADME. On the technique in general: Liver microsomes are vesicles of endoplasmic reticulum, rich in cytochrome P450 enzymes.

Data set [14] concerns Liver microsome. Briefly: Retention time of the compound in rat liver microsomes treated with ((S)-2-((1S,2S,4R)-bicyclo[2.2.1]heptan-2-ylamino)-5-(2-hydroxypropan-2-yl)-5-methylthiazol-4(5H)-one at 20 uM preincubated for 5 mins followed by NADPH addition measured after 60 mins by LC-MS/MS analysis. The class given is ADME. Conditions: 1 h.
Data set [15] is described as follows: Drug excretion in male Sprague-Dawley rat urine treated with [14C]-AMG 221 at 2 mg/kg, po measured over 24 hrs by LC-MS/HPLC radiometric analysis. Format: ADME, organism-based. More on the design: dose 2 mg/kg, route oral. Conditions: in vivo.
Data set [16] in a line: Drug excretion in male Sprague-Dawley rat feces treated with [14C]-AMG 221 at 2 mg/kg, po measured over 24 hrs by LC-MS/HPLC radiometric analysis. Format: ADME, organism-based. More on the design: dose 2 mg/kg, route oral. Conditions: in vivo.
Data set [17] in a line: Drug excretion in female Sprague-Dawley rat urine treated with [14C]-AMG 221 at 2 mg/kg, po measured over 24 hrs by LC-MS/HPLC radiometric analysis. Conditions: in vivo. The class given is ADME, organism-based. Further details: dose 2 mg/kg, route oral.
Data set [18] is described as follows: Drug excretion in female Sprague-Dawley rat feces treated with [14C]-AMG 221 at 2 mg/kg, po measured over 24 hrs by LC-MS/HPLC radiometric analysis. Further details: dose 2 mg/kg, route oral. Conditions: in vivo. The class given is ADME, organism-based.
Data set [19] in a line: Retention time of the compound in Sprague-Dawley rat urine treated with [14C]-AMG 221 at 2 mg/kg, po measured over 24 hrs by LC-MS/HPLC radiometric analysis. More on the design: dose 2 mg/kg, route oral. Format: ADME, organism-based. Conditions: in vivo.
Data set [20] in a line: Retention time of the compound in Beagle dog urine treated with [14C]-AMG 221 at 2 mg/kg, po measured over 24 hrs by LC-MS/HPLC radiometric analysis. The class given is ADME, organism-based, Canis lupus familiaris. More on the design: dose 2 mg/kg, route oral. Conditions: in vivo.
A short description of data set [21]: Drug level in Sprague-Dawley rat urine treated with [14C]-AMG 221 at 2 mg/kg, po measured over 24 hrs by LC-MS/HPLC radiometric analysis. Further details: dose 2 mg/kg, route oral. The settings on record: in vivo. The class given is ADME, organism-based.
Data set [22] concerns Liver microsome. Kind of data set: Retention time of the compound in rat liver microsomes treated with (S)-2-((1S,2S,4R)-bicyclo[2.2.1]heptan-2-ylamino)-5-(2-hydroxypropan-2-yl)-5-methylthiazol-4(5H)-one at 20 uM preincubated for 5 mins followed by NADPH addition measured after 60 mins by LC-MS/MS analysis. The settings on record: 1 h. Format: ADME.

For `CC(C)[C@]1([14CH3])SC(N[C@H]2C[C@H]3C[C@@H]2C[C@@H]3O)=NC1=O`, the Drug recovery was determined as 89% in [1], 7% in [2], 55% in [4] and 10% in data set [5]. Besides, the Drug uptake entry in [3] and in data set [10] was “Active” throughout. The Drug metabolism entry in data set [6], in data set [7], in [8], in data set [9] and in data set [11] was “metabolite_detected” in each case.

`CC(C)(O)[C@]1(C)SC(N[C@H]2C[C@H]3C[C@@H]2[C@H](O)C3)=NC1=O` gave a Drug recovery in data set [12] of 2.4%. Further, the Drug metabolism entry in data set [13] is “metabolite_detected”. Further, the Retention_time in [14] turned out to be 16.8 min. Also, the Drug excretion in [15] came to 8.3%; in data set [16], 8.3%; in [17], 24%; in data set [18], 24%.

In data set [12], `C[C@@H](CO)[C@]1(C)SC(N[C@H]2C[C@H]3C[C@@H]2[C@H](O)C3)=NC1=O` returned a Drug recovery of 0.9%. Besides, the Retention_time was found to be 15.1 min in data set [19], 15.1 min in data set [20] and 15.7 min in [22]. Moreover, the Drug metabolism result in [13] and in [21] was “metabolite_detected” each time. In addition, the Drug excretion came to 8.3% in data set [15], 8.3% in data set [16], 24% in [17] and 24% in data set [18].
